Test results reported in ChEMBL document CHEMBL2040775, “Evaluation of novel antioxidant triterpenoid saponins from the halophyte Salicornia herbacea” (Bioorg Med Chem Lett, 2012).
The source made the active and inactive calls. The rule behind the calls is not given here.

Columns and labels:
Format in all cases: functional
[1] = Antioxidant activity assessed as authentic peroxynitrite radical scavenging activity at 50 ug/ml after 5 mins by spectrophotometry
[2] = Antioxidant activity assessed as authentic peroxynitrite radical scavenging activity after 5 mins by spectrophotometry
[3] = Antioxidant activity assessed as morpholinosydnonimine-derived peroxynitrite free radical scavenging activity after 5 mins by spectrophotometry
[4] = tested on: Radical scavenging activity; experiment: Antioxidant activity assessed as DPPH radical scavenging activity after 30 mins by spectrophotometry
[5] = Antioxidant activity assessed as morpholinosydnonimine-derived peroxynitrite free radical scavenging activity at 50 ug/ml after 5 mins by spectrophotometry
[6] = tested on: Radical scavenging activity; experiment: Antioxidant activity assessed as DPPH radical scavenging activity at 100 ug/ml after 30 mins by spectrophotometry
[7] = tested on: Radical scavenging activity; experiment: Antioxidant activity assessed as DPPH radical scavenging activity at 10 ug/ml after 30 mins by spectrophotometry
[8] = tested on: Radical scavenging activity; experiment: Antioxidant activity assessed as DPPH radical scavenging activity a 50 ug/ml after 30 mins by spectrophotometry

SMILES | Activity [1] | IC50 [2] | IC50 [3] | IC50 [4] | Activity [5] | Activity [6] | Activity [7] | Activity [8]
CC1(C)CC[C@]2(C(=O)O[C@@H]3O[C@H](CO)[C@@H](O)[C@H](O)[C@H]3O)CC[C@]3(C)C(=CC[C@@H]4[C@@]5(C)CC[C@H](O[C@@H]6O[C@H](C(=O)O)[C@@H](O)[C@H](O)[C@H]6O)[C@@](C)(C=O)[C@@H]5CC[C@]43C)[C@@H]2C1 | Active | 7.1 µM | 1.4 µM | > 500 µM | Active | – | – | –
C=C1CC[C@]2(C(=O)O[C@@H]3O[C@H](CO)[C@@H](O)[C@H](O)[C@H]3O)CC[C@]3(C)C(=CC[C@@H]4[C@@]5(C)CC[C@H](O[C@@H]6O[C@H](C(=O)O)[C@@H](O)[C@H](O)[C@H]6O)[C@@](C)(CO)[C@@H]5CC[C@]43C)[C@@H]2C1 | Active | < 1 µM | < 1 µM | 390 µM | Active | – | – | –
C=C1CC[C@]2(C(=O)O[C@@H]3O[C@H](CO)[C@@H](O)[C@H](O)[C@H]3O)CC[C@]3(C)C(=CC[C@@H]4[C@@]5(C)CC[C@H](O[C@@H]6O[C@H](C(=O)O)[C@@H](O)[C@H](O)[C@H]6O)[C@@](C)(C=O)[C@@H]5CC[C@]43C)[C@@H]2C1 | Active | 4.9 µM | 6.6 µM | > 500 µM | Active | – | – | –
CC(C)(S)[C@@H](N)C(=O)O [PENICILLAMINE] | – | < 1 µM | < 1 µM | – | – | – | – | –
O=C1O[C@H]([C@@H](O)CO)C(O)=C1O [ASCORBIC ACID] | – | 1.5 µM | < 1 µM | < 20 µM | – | 95% | 94.9% | 95.1%
Cc1cc(C(C)(C)C)c(O)c(C(C)(C)C)c1 [BUTYLATED HYDROXYTOLUENE] | – | – | – | < 200 µM | – | 68% | 39.7% | 54.9%
CC1(C)CC[C@]2(C(=O)O)CC[C@]3(C)C(=CC[C@@H]4[C@@]5(C)CC[C@H](O[C@@H]6O[C@H](C(=O)O)[C@@H](O)[C@H](O)[C@H]6O)[C@@](C)(C=O)[C@@H]5CC[C@]43C)[C@@H]2C1 | Active | 21.9 µM | 20.4 µM | > 500 µM | Active | – | – | –
